Experimental data as given in PubChem BioAssay (NCI).
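These data come from cells grown in 96-well plates and exposed to compound for 48 hours at five concentrations. GI50 = concentration required for 50% inhibition of growth. The concentration for full growth arrest is given as TGI.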

How the values were obtained:
Experiment in all cases: NCI anticancer screen, dose series, 48 h
HCT-116 colon = tested on: HCT-116 colon
UO-31 renal = tested on: UO-31 renal
IGROV1 ovarian = tested on: IGROV1 ovarian
RXF 393 renal = tested on: RXF 393 renal
HCT-15 colon = tested on: HCT-15 colon
SR leukemia = tested on: SR leukemia
SN12C renal = tested on: SN12C renal
OVCAR-4 ovarian = tested on: OVCAR-4 ovarian
HL-60(TB) leukemia = tested on: HL-60(TB) leukemia
HOP-92 NSCLC = tested on: HOP-92 NSCLC

| Compound | TGI (HCT-116 colon) [µM] | TGI (UO-31 renal) [µM] | TGI (IGROV1 ovarian) [µM] | TGI (RXF 393 renal) [µM] | TGI (HCT-15 colon) [µM] | TGI (SR leukemia) [µM] | TGI (SN12C renal) [µM] | TGI (OVCAR-4 ovarian) [µM] | TGI (HL-60(TB) leukemia) [µM] | GI50 (HCT-116 colon) [µM] | GI50 (RXF 393 renal) [µM] | TGI (HOP-92 NSCLC) [µM] | GI50 (UO-31 renal) [µM] | GI50 (IGROV1 ovarian) [µM] | GI50 (HCT-15 colon) [µM] | GI50 (HOP-92 NSCLC) [µM] | GI50 (SR leukemia) [µM] | GI50 (SN12C renal) [µM] | GI50 (HL-60(TB) leukemia) [µM] | GI50 (OVCAR-4 ovarian) [µM] |
| --- | --- | --- | --- | --- | --- | --- | --- | --- | --- | --- | --- | --- | --- | --- | --- | --- | --- | --- | --- | --- |
| O=C(/C=C/c1ccccc1Cl)NC1C=Nc2ccc([N+](=O)[O-])cc2NC1 (stereo not given) | > 100 | > 100 | > 100 | > 100 | > 100 | 96.2 | > 100 | > 100 | > 100 | – | – | – | – | – | – | – | – | – | – | – |
| O=P1(c2ccccc2)CCCCC1 | > 100 | > 100 | > 100 | > 100 | > 100 | > 100 | > 100 | > 100 | > 100 | – | – | – | – | – | – | – | – | – | – | – |
| O=C(O)CC(NC(=O)CP(=O)(O)O)C(=O)O (stereo not given) | > 10000 | > 10000 | > 8280 | > 10000 | 9160 | – | > 9020 | > 10000 | > 10000 | 54.6 | 90.5 | 2380 | – | – | – | – | – | – | – | – |
| COc1ccc(-c2coc3c4c(ccc3c2=O)OCO4)cc1OC | > 100 | > 100 | > 100 | – | > 100 | > 100 | > 100 | > 100 | > 100 | – | – | > 100 | – | – | – | – | – | – | – | – |
| CCOc1ccncc1[N+](=O)[O-] | > 100 | > 100 | > 100 | > 100 | > 100 | > 100 | > 100 | – | > 100 | – | – | – | – | – | – | – | – | – | – | – |
| CC(=O)O[C@H]1CCC2[C@@H]3CCC4Nc5[nH]ncc5C[C@]4(C)C3CC[C@@]21C (stereo not given in full) | > 100 | > 100 | > 100 | > 100 | > 100 | – | > 100 | > 100 | 42.5 | – | – | – | – | – | – | – | – | – | – | – |
| C#COc1cccc(Nc2c(C#N)cnc3ncc(NC(=O)CCl)cc23)c1 | > 62.5 | > 62.5 | > 62.5 | > 62.5 | > 62.5 | > 62.5 | > 62.5 | – | > 62.5 | 14.8 | > 62.5 | > 62.5 | 35.1 | 17.1 | > 62.5 | > 62.5 | 17.6 | 16.2 | 41 | – |
| CCCO/S(=N\S(=O)(=O)c1ccccc1)c1ccccc1[N+](=O)[O-] (stereo not given) | > 100 | > 100 | > 100 | – | > 100 | > 100 | > 100 | > 100 | – | – | – | – | – | – | – | – | – | – | – | – |
| COc1ccc(-n2c(C)cc(-c3ccccc3)c2C)cc1 | 16.1 | 95.8 | 34.8 | 5.31 | 13.3 | 5.75 | > 100 | > 100 | 9.92 | 2.11 | 1.7 | – | 2.24 | 4.23 | 1.95 | – | 1.3 | 2.84 | 2.88 | 2.46 |
| O=CN1CCN(CC(O)CN2CCCCC2)CC1 (stereo not given) | > 100 | > 100 | > 100 | > 100 | > 100 | > 100 | > 100 | > 100 | > 100 | – | – | – | – | – | – | – | – | – | – | – |
| COc1ccc(O)c(C(=O)c2ccc(C(=O)N[C@H]3CCCNC[C@@H]3NC(=O)c3ccncc3)cc2)c1F | > 25 | > 25 | > 25 | 15 | > 25 | 12.7 | > 25 | > 25 | > 25 | 12.3 | 1.44 | – | > 18.9 | 3.74 | > 25 | – | 0.63 | 3.61 | > 23.5 | > 12.3 |
| c1ccc2nc3c(nc2c1)sc1ccccc13 | > 100 | > 100 | 51 | – | > 100 | > 100 | > 100 | 32.9 | > 100 | – | – | – | – | – | – | – | – | – | – | – |
| CCn1c(=O)c2c(=O)c3c4c(oc3oc2c2ccccc21)C(=O)c1ccccc1C4=O | > 100 | > 100 | > 100 | > 100 | > 100 | – | > 100 | 1.5 | – | – | > 31.7 | – | > 100 | > 50.1 | > 100 | – | – | > 100 | – | 0.376 |
| Cc1nc([N+](=O)[O-])cn1CC(=N)N | > 100 | > 100 | > 100 | > 100 | > 100 | > 100 | > 100 | > 100 | > 100 | – | – | – | – | – | – | – | – | – | – | – |
| CN[C@@H](C)[C@@H](NC)c1ccccc1 | > 100 | > 100 | > 100 | > 100 | > 100 | – | > 100 | – | – | – | – | > 100 | – | – | – | – | – | – | – | – |
| CC1COC(C)(C)P(=O)(c2ccccc2)C1 (stereo not given) | > 100 | > 100 | > 100 | > 100 | > 100 | > 100 | > 100 | – | > 100 | – | – | – | – | – | – | – | – | – | – | – |
| N#CC1=C(N)Oc2cc(O)ccc2C1c1cccc2ccccc12 (stereo not given) | 25.7 | 25.8 | 29.4 | – | 26.9 | 14.8 | 58.3 | 31.5 | 11.7 | 6.52 | – | 23.7 | 12.3 | 13.1 | 8.71 | 3.78 | 3.26 | 20.4 | 3.16 | 13.1 |
| Cc1nc(-[n+]2nc(-c3ccncc3)nn2-c2ccccc2)sc1C | > 100 | 50.4 | > 100 | 45.9 | > 100 | > 100 | > 100 | – | > 100 | – | – | – | – | – | – | – | – | – | – | – |
| CCOP(=O)(OCC)OC1C=CC2CCC1C2 (stereo not given) | > 100 | > 100 | > 100 | > 100 | > 100 | 58.7 | > 100 | > 100 | > 100 | – | – | – | – | – | – | – | – | – | – | – |
| O=C(Nc1ccc(F)cc1)c1cc(S(=O)(=O)Nc2nc3ccccc3o2)c(SCc2ccccc2)cc1Cl | 31.7 | 29.2 | 21.3 | 30.2 | 30.1 | – | 31.6 | 60.9 | – | 17.9 | 12.8 | 42.4 | 14.1 | 0.611 | 15.8 | 18.5 | – | 16.4 | – | 26.9 |
